Source: patent US9120756B2, “Substituted phenylureas and phenylamides as vanilloid receptor ligands” (Gruenenthal GmbH, priority 2009, dated 2015)

Experiments:
mice = assay: Formalin test carried out on mice (FTm); type: in vivo; conditions: 1 po, percentage change relative to control
Experimental: In the formalin test, the testing to determine the antinociceptive effect of the compounds according to the invention is carried out on male mice (NMRI, 20 to 30 g body weight, Iffa, Credo, Belgium).
In the formalin test as described by D. Dubuisson et al., Pain 1977, 4, 161-174, a distinction is drawn between the first (early) phase (0 to 15 minutes after the injection of formalin) and the second (late) phase (15 to 60 minutes after the injection of formalin). The early phase, as an immediate reaction to the injection of formalin, is a model of acute pain, whereas the late phase is regarded as a model of persistent (chronic) pain (T. J. Coderre et al., Pain 1993, 52, 259-285). The corresponding descriptions in the literature are introduced herewith by way of reference and form part of the disclosure.
The compounds according to the invention are tested in the second phase of the formalin test to obtain information about the effects of substances on chronic/inflammatory pain. […]
Subsequently, the nociceptive behaviour is continuously detected by observing the animals over a test period of three minutes in the second (late) phase of the formalin test (21 to 24 minutes after the injection of formalin). The pain behaviour is quantified by adding up the seconds over which the animals display licking and biting of the paw in question during the test period. […]

hVR1 = hVR1 (Homo sapiens (Human), UniProt Q8NER1); assay: FLIPR assay human VR1, 45° C. stimulus; type: cell-based; conditions: inhibition determined at 2.5 μM, read-out: IC50 (human being) 45° C. column: inhibition (as a percentage) @ 2.5 μM
Chain of hVR1 (Q8NER1 whole entry): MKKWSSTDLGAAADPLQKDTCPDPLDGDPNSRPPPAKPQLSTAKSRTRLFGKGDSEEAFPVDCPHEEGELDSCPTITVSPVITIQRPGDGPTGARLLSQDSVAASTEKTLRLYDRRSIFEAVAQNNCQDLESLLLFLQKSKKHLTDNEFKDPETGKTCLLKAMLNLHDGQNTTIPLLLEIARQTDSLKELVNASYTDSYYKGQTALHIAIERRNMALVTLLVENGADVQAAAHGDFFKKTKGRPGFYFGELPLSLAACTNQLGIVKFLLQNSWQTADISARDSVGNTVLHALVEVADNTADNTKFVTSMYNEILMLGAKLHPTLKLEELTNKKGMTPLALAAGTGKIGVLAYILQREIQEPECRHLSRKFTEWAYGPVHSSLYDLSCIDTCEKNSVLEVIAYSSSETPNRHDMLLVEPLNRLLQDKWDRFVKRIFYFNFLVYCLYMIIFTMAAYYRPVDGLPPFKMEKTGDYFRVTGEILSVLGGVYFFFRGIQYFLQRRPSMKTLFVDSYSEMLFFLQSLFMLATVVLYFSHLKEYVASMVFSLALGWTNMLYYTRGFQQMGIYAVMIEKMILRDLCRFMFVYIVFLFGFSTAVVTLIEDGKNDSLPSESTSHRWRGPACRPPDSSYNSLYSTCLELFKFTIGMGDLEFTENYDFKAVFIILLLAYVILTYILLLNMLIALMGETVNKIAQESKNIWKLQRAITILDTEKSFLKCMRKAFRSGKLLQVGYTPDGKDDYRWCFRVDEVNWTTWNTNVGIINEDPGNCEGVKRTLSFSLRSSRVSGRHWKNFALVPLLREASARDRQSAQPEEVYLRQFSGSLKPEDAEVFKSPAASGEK
Text: The agonistic or antagonistic effect of the substances to be tested on the vanilloid receptor 1 (VR1) can also be determined using the following assay. In this assay, the influx of Ca^2+ through the channel is quantified with the aid of a Ca^2+-sensitive dye (type Fluo-4, Molecular Probes Europe BV, Leiden, the Netherlands) in a fluorescent imaging plate reader (FLIPR, Molecular Devices, Sunnyvale, USA).
Chinese hamster ovary cells (CHO K1 cells, European Collection of Cell Cultures (ECACC) United Kingdom) are stably transfected with the VR1 gene. For functional testing, these cells are plated out on poly-D-lysine-coated black 96-well plates having a clear base (BD Biosciences, Heidelberg, Germany) at a density of 25,000 cells/well. The cells are incubated overnight at 37° C. and 5% CO2 in a culture medium (Ham's F12 nutrient mixture, 10% by volume of FCS (foetal calf serum), 18 μg/ml of L-proline). The next day the cells are incubated with Fluo-4 (Fluo-4 2 μM, 0.01% by volume of Pluronic F127, Molecular Probes in HBSS (Hank's buffered saline solution), Gibco Invitrogen GmbH, Karlsruhe, Germany) for 30 minutes at 37° C. Subsequently, the plates are washed three times with HBSS buffer and after further incubation for 15 minutes at RT used for Ca^2+ measurement in a FLIPR assay. The Ca^2+-dependent fluorescence is measured before and after the addition of the substances to be tested (λex wavelength=488 nm, λem=540 nm). Quantification is carried out by measuring the highest fluorescence intensity (FC, fluorescence counts) over time.
The FLIPR protocol consists of 2 substance additions. […]
Desensitising agonists and antagonists led to suppression of the Ca^2+ influx.
Ki values for the test substances were obtained by conversion by means of the Cheng-Prusoff equation (Cheng, Prusoff; Biochem. Pharmacol. 22, 3099-3108, 1973).

inhibition at 2.5 µM (hVR1): 12%
SMILES: O=C(Cc1cccc(F)c1)NCc1cc(C(F)(F)F)nn1-c1cccc(Cl)c1 [Example 74, N-((1-(3-chlorophenyl)-3-(trifluoromethyl)-1H-pyrazol-5-yl)methyl)-2-(3-fluorophenyl)acetamide]
FTm (mice): 13%
